Converted amounts (≈) assume the structure as drawn. Read-outs that look alike come from different tables or passages of the source. Non-standard residues stand in square brackets, D forms with d. Residues, ends and D or L forms follow the SMILES beside them. Dap = NC[C@H](N)C(=O)O
Columns and labels:
[1] = cited from earlier work
Excerpt: (§1) Overall, our work highlights the potential of […] analogs in comparison to related Trp-rich AMPs as potent antibiofilm peptides that can interfere in biofilms produced by P. aeruginosa and potentially other Gram-negative pathogenic bacteria. New antibiofilm agents are welcome for this organism, as P. aeruginosa is well-known to have numerous mechanisms to elude the action of antibiotics during biofilm formation. Various factors can influence the suitability of AMPs to act as bactericidal and antibiofilm peptides simultaneously (for a general discussion see, for example, [74]). One ...

P. aeruginosa PAO1 GFP [2] = test: MIC against planktonic cells, absorbance at 600 nm; assay type: cell-based, Pseudomonas aeruginosa; conditions: absorbance 600 nm
Outline: (§2)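 GFP-expressing P. aeruginosa PAO1 exposed to peptides; planktonic MIC read by absorbance at 600 nm, while MBIC (prevention) and MBEC (eradication) used biofilm GFP fluorescence at 480/530 nm. Triplicate biological replicates averaged, with untreated growth and medium-only controls on each plate.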

P. aeruginosa PAO1 GFP [3] = test: MBIC, prevention of biofilm formation, GFP fluorescence method; assay type: cell-based, Pseudomonas aeruginosa
Outline: as §2

P. aeruginosa PAO1 GFP [4] = test: MBEC, biofilm eradication, GFP fluorescence method; assay type: cell-based, Pseudomonas aeruginosa
Outline: as §2

P. aeruginosa PAO1 [5] = assay type: cell-based, Pseudomonas aeruginosa; conditions: absorbance 600 nm
Outline: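 PAO1 tested with peptides in 1× BM2; planktonic growth read at 600 nm, biofilm quantified by 0.1% crystal violet staining (15 min), ethanol release and 595 nm reading, using a Calgary biofilm device. Values are means of three replicates with untreated-growth and medium-only controls.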

P. aeruginosa PAO1 [6] = assay type: cell-based
Outline: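 Peptides tested against P. aeruginosa PAO1 in 1× BM2 medium; planktonic growth read at 600 nm for MIC. Biofilm inhibition and eradication quantified by 0.1% crystal violet staining (15 min), ethanol release, absorbance at 595 nm, plus GFP-fluorescence and Calgary peg-device methods; triplicate means.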

[7] = tested on: peripheral blood mononuclear cells (PBMCs); conditions: cited from earlier work
Excerpt: as §1

red blood cells = conditions: cited from earlier work
Excerpt: as §1

S. aureus GFP [8] = test: MIC against planktonic cells, absorbance at 600 nm; assay type: cell-based, Staphylococcus aureus; conditions: Table 4; Sa GFP, 10% TSB and 0.1% glucose; absorbance 600 nm; mean of three biological replicates
Outline: (§3)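 GFP-expressing S. aureus, triplicate biological replicates. MIC on planktonic cells by absorbance at 600 nm. MBIC and MBEC from biofilm GFP fluorescence (480/530 nm), with untreated growth and media-only controls.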

S. aureus GFP [9] = test: MBIC, GFP fluorescence method; assay type: cell-based, Staphylococcus aureus; conditions: Table 4, Sa GFP, 10% TSB and 0.1% glucose, mean of three biological replicates
Outline: as §3

S. aureus GFP [10] = test: MBEC, GFP fluorescence method; assay type: cell-based, Staphylococcus aureus; conditions: Table 4, Sa GFP, 10% TSB and 0.1% glucose, mean of three biological replicates
Outline: as §3

S. aureus GFP [11] = assay type: cell-based, Staphylococcus aureus; conditions: Table 4; Sa GFP; lowest concentration of peptide with no bacterial growth seen on the spot agar plate
P. aeruginosa PAO1 [12] = assay type: cell-based, Pseudomonas aeruginosa; conditions: Table 5; PAO1, 1x BM2; biofilms on pegs, cells plated and counted; three biological replicates
Outline: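 Biofilm eradication (MBEC) for peptides against P. aeruginosa PAO1 in 1× BM2 medium, from counts of biofilm cells; GFP-producing strain fluorescence, crystal violet staining and Calgary peg device also used. Three biological replicates, mean ± SD, with untreated growth and medium-only controls.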

[13] = Table 3, Tritrp-Lys derivatives, BM2 medium, three replicates
[14] = Table 6, Tritrp-Lys derivatives, PAO1, BM2, three replicates, unit not given
[15] = Table 6, Tritrp-Lys derivatives, PAO1, BM2, 0.1% crystal violet 15 min, released with 95% ethanol, 595 nm, three replicates, unit not given
[16] = Table 2, BM2 medium, mean of three biological replicates
[17] = Table 5, regular PAO1 (no GFP), 1x BM2, mean of three biological replicates
[18] = Table 5, PAO1, 1x BM2, crystal violet at 595 nm, mean of three biological replicates
[19] = Table 5, minimum biofilm reduction concentration, PAO1, 1x BM2, crystal violet at 595 nm, mean of three biological replicates

Row | Compound | cytotoxicity activities against PBMCs [7] | MIC at 600 nm LD50 (P. aeruginosa PAO1 GFP [2]; [16]) [µM] | MIC at 600 nm LD90 (P. aeruginosa PAO1 GFP [2]; [16]) [µM] | MBIC at 488 and 530 nm LD50 (P. aeruginosa PAO1 GFP [3]; [16]) [µmol/L] | MBIC at 488 and 530 nm LD90 (P. aeruginosa PAO1 GFP [3]; [16]) [µmol/L] | MBEC at 488 and 530 nm LD50 (P. aeruginosa PAO1 GFP [4]; [16]) [µmol/L] | MBEC at 488 and 530 nm LD90 (P. aeruginosa PAO1 GFP [4]; [16]) [µmol/L] | MIC at 600 nm LD50 (S. aureus GFP [8]) [µM] | MIC at 600 nm LD90 (S. aureus GFP [8]) [µM] | MBIC at 488 and 530 nm LD50 (S. aureus GFP [9]) [µmol/L] | MBIC at 488 and 530 nm LD90 (S. aureus GFP [9]) [µmol/L] | MBEC at 488 and 530 nm LD50 (S. aureus GFP [10]) [µmol/L] | MBEC at 488 and 530 nm LD90 (S. aureus GFP [10]) [µmol/L] | MBC Agar Plate (S. aureus GFP [11]) [µM] | MIC at 600 nm LD50 (P. aeruginosa PAO1 [5]; [17]) [µmol/L] | MIC at 600 nm LD90 (P. aeruginosa PAO1 [5]; [17]) [µmol/L] | MBIC (CV at 595 nm) LD90 (P. aeruginosa PAO1 [6]; [18]) [µmol/L] | MBRC (CV at 595 nm) LD90 (P. aeruginosa PAO1 [6]; [19]) [µmol/L] | MBEC from Calgary Biofilm Device (CBD) LD50 (P. aeruginosa PAO1 [12]) [µmol/L] | MBEC from Calgary Biofilm Device (CBD) LD90 (P. aeruginosa PAO1 [12]) [µmol/L] | further results
1 | NCC(N)C(=O)O (centres unmarked) [Dap, 2,3-diaminopropionic acid] |  |  |  |  |  |  |  |  |  |  |  |  |  |  |  |  |  |  |  |  | sidechain pKa value [1]: 6.3
2 | CC(C)C[C@H](NC(=O)[C@H](Cc1ccccc1)NC(=O)[C@@H]1CCCN1C(=O)[C@H](Cc1c[nH]c2ccccc12)NC(=O)[C@H](Cc1c[nH]c2ccccc12)NC(=O)[C@H](Cc1c[nH]c2ccccc12)NC(=O)[C@@H]1CCCN1C(=O)[C@H](Cc1ccccc1)NC(=O)[C@H](CN)NC(=O)[C@H](CN)NC(=O)[C@@H](N)C(C)C)C(=O)N[C@@H](CN)C(=O)N[C@@H](CN)C(N)=O [Tritrp-Dap] (H-V[Dap][Dap]FPWWWPFL[Dap][Dap]-NH2; N-terminus assumed) | no effect |  |  |  |  |  |  |  |  |  |  |  |  |  |  |  |  |  |  |  | MIC at 600 nm LD50 (P. aeruginosa PAO1 GFP [2]; [13]): 8 µM (≈ 13 µg/mL); MIC at 600 nm LD90 (P. aeruginosa PAO1 GFP [2]; [13]): 8 µM (≈ 13 µg/mL); MBIC at 488 and 530 nm LD50 (P. aeruginosa PAO1 GFP [3]; [13]): 8 µmol/L; MBIC at 488 and 530 nm LD90 (P. aeruginosa PAO1 GFP [3]; [13]): 16 µmol/L; MBEC at 488 and 530 nm LD50 (P. aeruginosa PAO1 GFP [4]; [13]): 8 µmol/L; MBEC at 488 and 530 nm LD90 (P. aeruginosa PAO1 GFP [4]; [13]): 64 µmol/L; MIC at 600 nm LD50 (P. aeruginosa PAO1 [5]; [14]): 8; MIC at 600 nm LD90 (P. aeruginosa PAO1 [5]; [14]): 16; MBEC (CV at 595 nm) LD90 (P. aeruginosa PAO1 [6]; [15]): 64; MBIC (CV at 595 nm) LD90 (P. aeruginosa PAO1 [6]; [15]): 16; effect on RBCs (red blood cells): no effect
3 | CC(C)C[C@H](NC(=O)[C@H](Cc1ccccc1)NC(=O)[C@H](C)NC(=O)[C@H](Cc1c[nH]c2ccccc12)NC(=O)[C@H](Cc1c[nH]c2ccccc12)NC(=O)[C@H](Cc1c[nH]c2ccccc12)NC(=O)[C@@H]1CCCN1C(=O)[C@H](Cc1ccccc1)NC(=O)[C@H](CCCNC(=N)N)NC(=O)[C@H](CCCNC(=N)N)NC(=O)[C@@H](N)C(C)C)C(=O)N[C@@H](CCCNC(=N)N)C(=O)N[C@@H](CCCNC(=N)N)C(N)=O [Tritrp-P9A] (H-VRRFPWWWAFLRR-NH2) | quite strong | 2 (≈ 3.75 µg/mL) | 2 (≈ 3.75 µg/mL) | 0.25 | 2 | 4 | 8 | 0.25 (≈ 0.469 µg/mL) | 1 (≈ 1.88 µg/mL) | 0.25 | 2 | 0.5 | 2 | 2 (≈ 3.75 µg/mL) | 2 (≈ 3.75 µg/mL) | 2 (≈ 3.75 µg/mL) | 2 | 32 | 8 | 16 | MBIC (CV at 595 nm) LD50 (P. aeruginosa PAO1 [6]; PAO1): 1 µmol/L; MBRC (CV at 595 nm) LD50 (P. aeruginosa PAO1 [6]; PAO1): 16 µmol/L; hemolytic activity (red blood cells): slightly more modest
4 | CC(C)C[C@H](NC(=O)[C@H](Cc1ccccc1)NC(=O)[C@H](C)NC(=O)[C@H](Cc1c[nH]c2ccccc12)NC(=O)[C@H](Cc1c[nH]c2ccccc12)NC(=O)[C@H](Cc1c[nH]c2ccccc12)NC(=O)[C@H](C)NC(=O)[C@H](Cc1ccccc1)NC(=O)[C@H](CCCNC(=N)N)NC(=O)[C@H](CCCNC(=N)N)NC(=O)[C@@H](N)C(C)C)C(=O)N[C@@H](CCCNC(=N)N)C(=O)N[C@@H](CCCNC(=N)N)C(N)=O [Tritrp-P59A] (H-VRRFAWWWAFLRR-NH2) | quite strong | 2 (≈ 3.7 µg/mL) | 4 (≈ 7.4 µg/mL) | 2 | 4 | 8 | 16 | 1 (≈ 1.85 µg/mL) | 2 (≈ 3.7 µg/mL) | 2 | 2 | 1 | 2 | 4 (≈ 7.4 µg/mL) | 2 (≈ 3.7 µg/mL) | 4 (≈ 7.4 µg/mL) | 4 | 32 | 16 | 32 | MBIC (CV at 595 nm) LD50 (P. aeruginosa PAO1 [6]; PAO1): 4 µmol/L; MBRC (CV at 595 nm) LD50 (P. aeruginosa PAO1 [6]; PAO1): 32 µmol/L; hemolytic activity (red blood cells): relatively strong
5 | CC(C)C[C@H](NC(=O)[C@H](Cc1ccccc1)NC(=O)[C@@H]1CCCN1C(=O)[C@H](Cc1ccc(O)cc1)NC(=O)[C@H](Cc1ccc(O)cc1)NC(=O)[C@H](Cc1ccc(O)cc1)NC(=O)[C@@H]1CCCN1C(=O)[C@H](Cc1ccccc1)NC(=O)[C@H](CCCNC(=N)N)NC(=O)[C@H](CCCNC(=N)N)NC(=O)[C@@H](N)C(C)C)C(=O)N[C@@H](CCCNC(=N)N)C(=O)N[C@@H](CCCNC(=N)N)C(N)=O [Tritrp-W678Y] (H-VRRFPYYYPFLRR-NH2) |  | >64 | >64 | >64 | >64 | >128 | >128 | 1 (≈ 1.83 µg/mL) | 2 (≈ 3.66 µg/mL) | 1 | 2 | 2 | 8 | 16 (≈ 29.3 µg/mL) | >64 | >64 | >64 | >128 | >128 | >128 | MBRC (CV at 595 nm) LD50 (P. aeruginosa PAO1 [6]; PAO1): 128 µmol/L; MBIC (CV at 595 nm) LD50 (P. aeruginosa PAO1 [6]; [18]): >64 µmol/L
6 | VRRFP(hW)(hW)(hW)PFLRR-NH2 [Tritrp-W678hW, Tritrp analog with hydroxy-Trp in place of the three Trp] |  | 32 | 64 | 16 | 64 | >128 | >128 | 2 | 4 | 2 | 4 | 4 | 8 | 16 | >64 | >64 | >64 | >128 | >128 | >128 | MBIC (CV at 595 nm) LD50 (P. aeruginosa PAO1 [6]; [18]): 32 µmol/L; MBRC (CV at 595 nm) LD50 (P. aeruginosa PAO1 [6]; [19]): >128 µmol/L

Reference: paper PMC11858513, “Antibiofilm Activities of Tritrpticin Analogs Against Pathogenic Pseudomonas aeruginosa PA01 Strains” (Molecules, 2025)
